Experimental data taken from patent US9675592B2, “Methods and compositions for bacteria infections” (priority 2013, dated 2017).
Read-outs that look alike come from different tables or passages of the source.

Experiments:
[1] = system: test strain 923 pPvra-lux (USA300 MRSA); assay: Primary screen, relative growth in presence of oxacillin; settings: compound 10 μM with oxacillin 2 μg/mL, absorbance 24 h, <0.50 = dead cells = hit
[2] = system: vraSR promoter (Pvra-lux reporter in strain 923); assay: Primary screen, relative luminescence (vraSR expression)
[3] = primary screen, compound 10 μM with oxacillin 2 μg/mL, <0.50 = vraSR repressed = hit

Row | SMILES | RG avg (relative growth) [1] | RL avg (relative luminescence) [2, 3] | RL avg (relative luminescence) [2]
1 | O=C(Nc1nnc(-c2ccncc2)o1)c1ccc(Oc2ccccc2)cc1 [F0608-1161] | 0.00 | −0.07 | –
2 | O=C(Nc1nnc(-c2ccccc2Cl)o1)c1cccc(Br)c1 [F1374-14] | 0.24 | 0.38 | –
3 | O=C(Nc1nnc(-c2ccccc2Cl)o1)c1ccc(Cl)s1 [F1374-36] | 0.04 | 0.35 | –
4 | O=C(Nc1nnc(-c2ccccc2Cl)o1)c1sc2ccccc2c1Cl [F1374-43] | 0.04 | 0.35 | –
5 | COC(=O)c1ccc(C(=O)Nc2nnc(-c3ccccc3Cl)o2)cc1 [F1374-55] | 0.28 | 0.47 | –
6 | O=C(Nc1nnc(-c2ccccc2Cl)o1)c1cc(Cl)sc1Cl [F1374-58] | 0.03 | 0.33 | –
7 | O=C(Nc1nnc(-c2ccc(F)cc2)o1)c1ccc(F)cc1 [F1374-116] | 0.00 | 0.34 | –
8 | O=C(Nc1nnc(-c2ccc(F)cc2)o1)c1nc2ccccc2s1 [F1374-138] | 0.00 | 0.40 | –
9 | O=C(Nc1nnc(-c2ccc(F)cc2)o1)c1ccc(Br)s1 [F1374-140] | 0.02 | 0.35 | –
10 | O=C(Nc1nnc(-c2ccc(F)cc2)o1)c1sc2ccccc2c1Cl [F1374-148] | 0.04 | 0.36 | –
11 | O=C(Nc1nnc(-c2ccc(F)cc2)o1)c1ccc2c(c1)CCCC2 [F1374-172] | 0.04 | 0.39 | –
12 | O=C(Nc1nnc(-c2ccc(F)cc2)o1)c1ccc(Oc2ccccc2)cc1 [F1374-188] | 0.02 | 0.33 | –
13 | COc1ccccc1-c1nnc(NC(=O)c2ccc(-c3ccccc3)cc2)o1 [F1374-220] | 0.01 | 0.35 | –
14 | COc1ccccc1-c1nnc(NC(=O)c2cccc(Br)c2)o1 [F1374-224] | −0.01 | 0.34 | –
15 | COc1ccccc1-c1nnc(NC(=O)c2sc3ccccc3c2Cl)o1 [F1374-253] | 0.04 | 0.32 | –
16 | COc1ccccc1-c1nnc(NC(=O)c2cc(-c3ccccc3)nc3ccccc23)o1 [F1374-254] | 0.06 | 0.36 | –
17 | COc1ccccc1-c1nnc(NC(=O)c2cc(-c3cccs3)nc3ccccc23)o1 [F1374-255] | 0.00 | 0.36 | –
18 | COc1ccccc1-c1nnc(NC(=O)c2ccc(Cc3ccccc3)cc2)o1 [F1374-276] | 0.01 | 0.39 | –
19 | COc1cccc(-c2nnc(NC(=O)c3ccc(Cl)cc3)o2)c1 [F1374-320] | 0.04 | 0.32 | –
20 | COc1cccc(-c2nnc(NC(=O)c3cccc(C(F)(F)F)c3)o2)c1 [F1374-352] | 0.03 | 0.41 | –
21 | COc1cccc(-c2nnc(NC(=O)C(c3ccccc3)c3ccccc3)o2)c1 [F1374-379] | 0.47 | 0.34 | –

Row | SMILES | RG avg (relative growth) [1] | RL avg (relative luminescence) [2, 3] | RL avg (relative luminescence) [2]
22 | COc1cccc(-c2nnc(NC(=O)c3cccc(Oc4ccccc4)c3)o2)c1 [F1374-396] | 0.04 | 0.34 | –
23 | COc1ccc(-c2nnc(NC(=O)c3ccc(C(=O)c4ccccc4)cc3)o2)cc1 [F1374-443] | 0.05 | 0.39 | –
24 | COc1ccc(-c2nnc(NC(=O)c3ccc(Br)s3)o2)cc1 [F1374-455] | 0.03 | 0.33 | –
25 | COc1ccc(-c2nnc(NC(=O)c3ccc(C(C)(C)C)cc3)o2)cc1 [F1374-495] | 0.04 | 0.37 | –
26 | COc1ccc(-c2nnc(NC(=O)c3cccc(C(F)(F)F)c3)o2)c(OC)c1 [F1374-562] | 0.02 | 0.38 | –
27 | COc1ccc(-c2nnc(NC(=O)c3cc(Cl)sc3Cl)o2)c(OC)c1 [F1374-583] | 0.00 | 0.36 | –
28 | COc1cc(OC)cc(-c2nnc(NC(=O)c3ccc(Cl)cc3Cl)o2)c1 [F1374-651] | 0.04 | 0.38 | –
29 | COc1cc(OC)cc(-c2nnc(NC(=O)c3ccc(Cl)s3)o2)c1 [F1374-666] | 0.05 | 0.34 | –
30 | O=C(Nc1nnc(-c2ccc(Cl)cc2)o1)c1cccs1 [F1374-757] | 0.02 | 0.29 | –
31 | O=C(Nc1nnc(-c2ccc(Cl)cc2)o1)c1ccc2ncsc2c1 [F1374-836] | −0.01 | 0.31 | –
32 | O=C(Nc1nnc(-c2ccccc2)o1)c1ccc(Br)s1 [F1374-875] | 0.04 | 0.30 | –
33 | O=C(Nc1nnc(-c2cccs2)o1)c1cccc(C(F)(F)F)c1 [F1374-982] | 0.13 | 0.35 | –
34 | O=C(Nc1nnc(-c2cccs2)o1)c1sc2ccccc2c1Cl [F1374-988] | 0.03 | 0.37 | –
35 | O=C(Nc1nnc(-c2cccs2)o1)c1ccc2c(c1)CCCC2 [F1374-1012] | 0.16 | 0.49 | –
36 | O=C(Nc1nnc(-c2ccc(Cl)s2)o1)c1ccc(Cl)cc1 [F1374-1055] | 0.02 | 0.50 | –
37 | O=C(Nc1nnc(-c2ccc(Cl)s2)o1)c1ccc(-c2ccccc2)cc1 [F1374-1060] | 0.17 | 0.46 | –
38 | O=C(Nc1nnc(-c2ccc(Cl)s2)o1)c1cccc(F)c1 [F1374-1062] | 0.01 | 0.46 | –
39 | O=C(Nc1nnc(-c2ccc(Cl)s2)o1)c1nc2ccccc2s1 [F1374-1083] | 0.02 | 0.49 | –
40 | O=C(Nc1nnc(-c2ccc(Cl)s2)o1)c1cc(-c2ccccc2)nc2ccccc12 [F1374-1094] | 0.03 | 0.52 | –
41 | O=C(COc1ccc(Cl)cc1Cl)Nc1nnc(-c2ccc(Cl)s2)o1 [F1374-1102] | 0.13 | – | 0.49
42 | CCOc1ccc(C(=O)Nc2nnc(-c3ccc(Cl)s3)o2)cc1 [F1374-1129] | 0.00 | – | 0.47

Row | SMILES | RG avg (relative growth) [1] | RL avg (relative luminescence) [2, 3] | RL avg (relative luminescence) [2]
43 | O=C(Nc1nnc(-c2ccc(Cl)s2)o1)c1ccccc1Oc1ccccc1 [F1374-1149] | −0.01 | 0.28 | –
44 | O=C(Nc1nnc(-c2ccc(Cl)s2)o1)c1ccc2ncsc2c1 [F1374-1151] | −0.02 | 0.35 | –
45 | O=C(Nc1nnc(-c2ccc(C(F)(F)F)cc2)o1)c1cc2ccccc2o1 [F1374-2134] | 0.20 | 0.38 | –
46 | O=C(Nc1nnc(-c2cc(Cl)sc2Cl)o1)c1cccs1 [F1374-2664] | 0.00 | 0.32 | –
47 | O=C(Nc1nnc(-c2cc(Cl)sc2Cl)o1)c1cccc(C(F)(F)F)c1 [F1374-2671] | 0.03 | 0.35 | –
48 | O=C(Nc1nnc(-c2cc(Cl)sc2Cl)o1)c1ccc2ncsc2c1 [F1374-2676] | 0.01 | 0.34 | –
49 | COc1cccc2cc(C(=O)Nc3nnc(-c4cc(Cl)sc4Cl)o3)oc12 [F1374-2680] | 0.00 | 0.42 | –
50 | Cc1onc(-c2ccccc2Cl)c1C(=O)Nc1nnc(-c2cc(Cl)sc2Cl)o1 [F1374-2706] | 0.02 | 0.25 | –
51 | O=C(Nc1nnc(-c2cc(Cl)sc2Cl)o1)c1ccc(F)cc1F [F1374-2707] | 0.00 | 0.32 | –
52 | CC(C)n1nccc1C(=O)Nc1nnc(-c2cc(Cl)sc2Cl)o1 [F1374-2902] | 0.00 | 0.33 | –
53 | COc1cccc2cc(-c3nnc(NC(=O)c4cccc(F)c4)o3)oc12 [F2273-13] | −0.03 | −0.06 | –
54 | COc1cccc2cc(-c3nnc(NC(=O)c4ccc(S(=O)(=O)N(C)C)cc4)o3)oc12 [F2273-29] | 0.16 | 0.29 | –
55 | COc1cccc2cc(-c3nnc(NC(=O)c4nc5ccccc5s4)o3)oc12 [F2273-37] | 0.09 | 0.09 | –
56 | COc1cccc2cc(-c3nnc(NC(=O)c4ccc5ncsc5c4)o3)oc12 [F2273-114] | 0.26 | 0.26 | –
57 | CCOc1cccc2cc(-c3nnc(NC(=O)c4sc5ccccc5c4Cl)o3)oc12 [F2273-238] | 0.26 | 0.19 | –
58 | O=C(Nc1nnc(-c2cc3ccccc3o2)o1)c1cccc(Cl)c1 [F2273-385] | 0.28 | 0.16 | –
59 | O=C(Nc1nnc(-c2cc3ccccc3o2)o1)c1ccc(F)cc1 [F2273-390] | 0.27 | 0.20 | –
60 | O=C(Nc1nnc(-c2cc3ccccc3o2)o1)c1nc2ccccc2s1 [F2273-415] | 0.27 | 0.22 | –
61 | O=C(Nc1nnc(-c2cc3ccccc3o2)o1)c1ccc2ncsc2c1 [F2273-492] | 0.25 | 0.24 | –
62 | O=C(Nc1nnc(Cc2ccccc2)o1)c1cc(Cl)sc1Cl [F2368-63] | −0.01 | −0.02 | –
63 | Cc1ccc(Cc2nnc(NC(=O)c3ccc(S(=O)(=O)N(C)c4ccccc4)cc3)o2)c(C)c1 [F2368-431] | −0.02 | −0.06 | –
